Source: paper PMC7557582, “Broad-Spectrum Antimicrobial Activity and Improved Stability of a D-Amino Acid Enantiomer of DMPC-10A, the Designed Derivative of Dermaseptin Truncates” (Antibiotics, 2020)
Non-standard residues stand in square brackets, D forms with d. Residues, ends and D or L forms follow the SMILES beside them. Cha = N[C@@H](CC1CCCCC1)C(=O)O

Tests used:
[1] = tested on: S. aureus (NCTC 10788); type: cell-based, Staphylococcus aureus; conditions: NCTC 10788, pH 7.4
Method: (§3) Gram-positive bacteria Staphylococcus aureus (NCTC 10788) and Enterococcus faecalis (NCTC 12697) and Gram-negative bacteria Escherichia coli (NCTC 10418), Pseudomonas aeruginosa (ATCC 27853), and Klebsiella pneumoniae (ATCC 43816) were tested. […] All the bacterial strains were inoculated in Mueller Hinton broth (MHB), pH 7.4 (Oxiod, Basingstoke, UK) at 37 °C. Then, the log-phase bacteria were mixed with the peptide at the concentrations from 512 to 1 µM in two-fold dilution, in a 96 well-plate. The wells contained sterilized MHB and bacteria cultures were employed as a blank and growth control, respectively.

[2] = tested on: MRSA (NCTC 12493); type: cell-based, methicillin-resistant S. aureus; conditions: NCTC 12493, pH 7.4
Method: as §3

[3] = tested on: E. faecalis (NCTC 12697); type: cell-based, Enterococcus faecalis; conditions: NCTC 12697, pH 7.4
Method: as §3

[4] = tested on: E. coli (NCTC 10418); type: cell-based, Escherichia coli; conditions: NCTC 10418, pH 7.4
Method: as §3

[5] = tested on: K. pneumoniae (ATCC 43816); type: cell-based, Klebsiella pneumoniae; conditions: ATCC 43816, pH 7.4
Method: as §3

[6] = tested on: K. pneumoniae (ATCC BAA 1705); type: cell-based, Klebsiella pneumoniae; conditions: ATCC BAA 1705, pH 7.4
Method: as §3

[7] = tested on: K. pneumoniae (ATCC BAA 2342); type: cell-based, Klebsiella pneumoniae; conditions: ATCC BAA 2342, pH 7.4
Method: as §3

[8] = tested on: P. aeruginosa (ATCC 27853); type: cell-based, Pseudomonas aeruginosa; conditions: ATCC 27853, pH 7.4
Method: as §3

[9] = tested on: S. aureus (NCTC 10788); type: cell-based, Staphylococcus aureus
Method: (§1) Furthermore, the antimicrobial activity in the presence of MgCl2, CaCl2, NaCl and 10% fetal bovine serum (FBS) was investigated. In detail, 2 and 5 mM of MgCl2 and CaCl2, and 150 and 375 mM NaCl, were applied, respectively. The supplements were added into the medium that was used for diluting the bacteria suspension. Then, the diluted bacteria culture was mixed with the peptide stock solution in the 96-well plate, as mentioned above. The assay was performed three times and each assay contained 5 replicates.

[10] = tested on: E. coli (NCTC 10418); type: cell-based, Escherichia coli
Method: as §1

[11] = biological target: T1, trypsin (Bos taurus, UniProt P00760); experiment: Enzyme stability assay, trypsin; type: in vitro ADME; conditions: peptide in PBS, peptide:trypsin 100:1 (m/m), time points 0-120 min, stopped with 10% TFA, RP-HPLC peak area, three replicates
T1 construct: gene PRSS1
T1 sequence (P00760 24-246): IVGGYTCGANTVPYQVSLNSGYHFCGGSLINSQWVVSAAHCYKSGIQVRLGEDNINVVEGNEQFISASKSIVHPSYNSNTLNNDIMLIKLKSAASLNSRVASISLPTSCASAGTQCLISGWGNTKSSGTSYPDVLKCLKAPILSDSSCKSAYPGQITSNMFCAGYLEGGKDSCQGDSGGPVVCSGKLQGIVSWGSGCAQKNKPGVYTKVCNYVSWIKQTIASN
Method: (§2) The peptides were dissolved in phosphate-buffered saline (PBS) and mixed with the respective enzyme (trypsin and chymotrypsin) with a ratio of 100:1 (m/m). Then, 135 µl of the reaction solution was transferred into a new vial. The hydrolysis reaction was immediately terminated by adding 15 µl of 10% TFA at the different time points (0, 5, 10, 20, 40, 60, 120 min). The mixture was then analyzed by reverse-phase HPLC and respective peak areas were calculated to obtain the residual amount of peptides at different times.

[12] = biological target: chymotrypsin (Bos taurus, UniProt P00766); experiment: Enzyme stability assay, chymotrypsin; type: in vitro ADME; conditions: peptide in PBS, peptide:chymotrypsin 100:1 (m/m), time points 0-120 min, stopped with 10% TFA, RP-HPLC peak area, three replicates
Method: as §2

[13] = cited from earlier work
Text: Dermaseptins are a class of cationic AMPs that were discovered from the skin of Phyllomedusa frogs, usually consisting of 28–34 amino acids. They can form an amphipathic α-helix in amphiphilic environments, which makes them bind easily to bacterial lipid bilayers. Dermaseptins contain a conserved Trp residue in position three and a unique internal motif, -AAA/GKAAL/G/NA-, and exert broad-spectrum antimicrobial activity against a range of ESKAPE pathogens. […] Compared with the other AMPs applied using the same model, such as Japonicin-2LF [53], DMPC-10B exerted relatively stronger efficacy. Japonicin-2LF prevented around 50% mortality at 50 mg/kg in treatment of MRSA infection, but DMPC-10B achieved similar efficacy at 20 mg/kg.

CC(C)C[C@H](NC(=O)[C@H](C)N)C(=O)N[C@@H](Cc1c[nH]c2ccccc12)C(=O)N[C@@H](CCCCN)C(=O)N[C@@H](CCCCN)C(=O)N[C@@H](CC(C)C)C(=O)N[C@@H](CC(C)C)C(=O)N[C@@H](CCCCN)C(=O)N[C@@H](CCCCN)C(=O)N[C@@H](CC1CCCCC1)C(N)=O [DMPC-10A] (H-ALWKKLLKK[Cha]-NH2)
10 min: time in which trypsin completely cleaved the peptide [11]
64 µM: MBC [3] | MIC [3] | MBC [5] | MIC with CaCl2 5 mM [9] | MIC with MgCl2 5 mM [9] | MIC with NaCl 375 mM [9] | MIC with CaCl2 5 mM [10] | MIC with MgCl2 5 mM [10]
16 µM: MBC [2] | MBC [7] | MIC [7] | MIC with FBS 10% [9] | MIC with FBS 10% [10] | MIC with NaCl 150 mM [10]
32 µM: MBC [6] | MIC [6] | MIC with NaCl 150 mM [9] | MIC with NaCl 375 mM [10]
4 µM: MIC [1] | MIC [5] | MBC [8] | MIC [8] | MIC, no additive [9]
considerable hemolytic effect: hemolytic effect [13]
8 µM: MBC [1] | MIC [2] | MBC [4] | MIC [4] | MIC, no additive [10]
40 min: time in which chymotrypsin cleaved the peptide [12]
